Source: article PMC4114247 (Cancer research, 2009)
Entries after “also recorded” stand apart in the source; their conditions may differ.

Columns and labels:
[1] = test system: LNCaP cells; test: Internalization into LNCaP cells; format: cell-based, human; details: 100 nM, 0–2 hours
[2] = test system: PC3 PIP (PSMA +) tumors; test: SPECT/CT imaging, PC3 PIP; details: 2 hr after injection
[3] = target: LNCaP cells (PSMA positive) (Homo sapiens, UniProt Q04609); test: Direct binding to LNCaP cells
LNCaP cells (PSMA positive), sequence (Q04609 whole entry): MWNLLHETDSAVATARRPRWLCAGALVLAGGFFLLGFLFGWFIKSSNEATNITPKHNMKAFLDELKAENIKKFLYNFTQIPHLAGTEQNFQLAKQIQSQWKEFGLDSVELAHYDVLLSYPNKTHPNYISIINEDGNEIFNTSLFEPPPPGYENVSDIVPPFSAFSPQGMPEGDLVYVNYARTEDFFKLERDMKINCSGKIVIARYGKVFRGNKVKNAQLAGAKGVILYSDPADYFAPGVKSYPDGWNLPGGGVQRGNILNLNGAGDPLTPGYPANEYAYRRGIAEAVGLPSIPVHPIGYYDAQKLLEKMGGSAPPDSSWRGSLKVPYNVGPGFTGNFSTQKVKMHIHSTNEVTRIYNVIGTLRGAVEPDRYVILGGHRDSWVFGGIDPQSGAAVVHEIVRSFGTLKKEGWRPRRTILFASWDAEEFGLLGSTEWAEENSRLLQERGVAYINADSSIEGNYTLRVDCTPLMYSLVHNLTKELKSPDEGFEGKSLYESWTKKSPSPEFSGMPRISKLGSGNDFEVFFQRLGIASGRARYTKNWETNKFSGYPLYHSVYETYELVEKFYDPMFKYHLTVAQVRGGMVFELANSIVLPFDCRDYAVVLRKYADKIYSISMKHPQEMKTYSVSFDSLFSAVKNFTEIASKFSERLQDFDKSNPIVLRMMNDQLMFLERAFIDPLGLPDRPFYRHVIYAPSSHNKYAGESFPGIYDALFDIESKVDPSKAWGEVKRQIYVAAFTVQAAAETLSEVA

[4] = test system: NCr-nu/nu mice bearing PC3 xenografts; test: Mouse tissue distribution, PC3 xenografts; format: in vivo; details: PSMA deficient PC3 xenografts
[5] = Stability in liver microsomes; format: in vitro ADME; details: data not shown
[6] = test system: PC3 cells (PSMA negative); test: Direct binding to PC3 cells; details: 3 nM radioligand, 1 hour; PC3 cells lack PSMA
[7] = Stability in blood plasma; format: in vitro ADME; details: data not shown
[8] = test system: mice bearing LNCaP xenografts; test: SPECT/CT imaging, LNCaP xenografts; format: in vivo, mouse; details: 4 hr after injection
[9] = test system: NCr nude mice bearing LNCaP xenografts; test: Mouse tissue distribution, LNCaP xenografts; format: in vivo
[10] = co-injected with 50 mg/kg PMPA, 2 hours
[11] = male, athymic NCr-nu/nu, mouse, in vivo
[12] = male, athymic NCr-nu/nu, mouse, in vivo, 0.25 h
[13] = male, athymic NCr-nu/nu, mouse, in vivo, 1 h
[14] = male, athymic NCr-nu/nu, mouse, in vivo, 2 h
[15] = male, athymic NCr-nu/nu, mouse, in vivo, 4 h
[16] = male, athymic NCr-nu/nu, mouse, in vivo, 8 h
[17] = male, athymic NCr-nu/nu, mouse, in vivo, 24 h

In the case of O=C(O)CC[C@H](NC(=O)N[C@@H](CCCCNC(=O)Nc1ccc(I)cc1)C(=O)O)C(=O)O [[^123I]MIP-1095, (S)-2-(3-((S)-1-carboxy-5-(3-(4-iodophenyl)ureido)pentyl)ureido)pentanedioic acid], the “Internalization into LNCaP cells” value ([1]; 4 °C) is reported as “but not at 4 °C”, the “Internalization into LNCaP cells” value ([1]; 37 °C) is reported as “internalized; also recorded: time dependent increase in radioactivity associated with the cellular pellet” and the “SPECT/CT detection of PC3 PIP (PSMA +) tumors” value [2] is reported as “detected”. The “Binding to LNCaP cells in the presence of non-radiolabeled compound or PMPA” value ([3]; 3 nM radioligand with 10 µM non-radiolabeled compound or 10 µM PMPA) was “abolished; also recorded: inhibited”, the “Binding to LNCaP cells” value ([3]; 3 nM radioligand, 1 hour, room temperature) was “bound” and the “Localization to PC3 tumors” value [4] was “not to the PSMA deficient PC3 tumors”. For the same compound, the “Stability in liver microsomes” value [5] was “stable”, the “Binding to PC3 cells” value [6] was “no binding; also recorded: not to the PSMA deficient PC3 cells” and the “Stability in blood plasma” value [7] was “stable”. For the same compound, the “SPECT/CT uptake in kidney and LNCaP tumor” value [8] was “high uptake”, the “Binding to LNCaP tumor xenografts with co-injected PMPA” value [9, 10] was “blocked” and the “Binding to kidneys with co-injected PMPA” value [9, 10] was “blocked”. The “Thyroid content (deiodination)” value [9, 11] was < 1 % of the total injected dose, the “tumor:blood ratio” value [9, 11] was greater than 100 and the “tumor:skeletal muscle ratio” value [9, 11] was greater than 100. For the same compound, the “Ratio Tumor:Blood” value [9, 12] was 2.10, the “Ratio Tumor:Skeletal Muscle” value [9, 12] was 8.79 and the “Tissue distribution: Adipose” value [9, 12] was 4.67 ± 4 %ID/g. For the same compound, the “Tissue distribution: Blood” value [9, 12] was 3.75 ± 0.7 %ID/g, the “Tissue distribution: Bone” value [9, 12] was 0.9 ± 0.27 %ID/g and the “Tissue distribution: Brain” value [9, 12] was 0.17 ± 0.05 %ID/g. For the same compound, the “Tissue distribution: Heart” value [9, 12] was 2.76 ± 0.54 %ID/g, the “Tissue distribution: Kidneys” value [9, 12] was 52.2 ± 12.2 %ID/g and the “Tissue distribution: Lg Intestine” value [9, 12] was 1.59 ± 1.45 %ID/g. The “Tissue distribution: Liver” value [9, 12] was 8.66 ± 1.54 %ID/g, the “Tissue distribution: Lungs” value [9, 12] was 4.53 ± 0.66 %ID/g and the “Tissue distribution: Sk.Muscle” value [9, 12] was 0.9 ± 0.2 %ID/g. For the same compound, the “Tissue distribution: Sm Intestine” value [9, 12] was 1.78 ± 1.05 %ID/g, the “Tissue distribution: Spleen” value [9, 12] was 9.65 ± 6.44 %ID/g and the “Tissue distribution: Stomach” value [9, 12] was 1.77 ± 0.52 %ID/g. For the same compound, the “Tissue distribution: Testes” value [9, 12] was 1.11 ± 0.51 %ID/g, the “Tissue distribution: Tumor (LNCaP xenograft)” value (from here on “Tissue distribution: Tumor”) [9, 12] was 7.9 ± 2.43 %ID/g and the “Ratio Tumor:Blood” value [9, 13] was 10.6. The “Ratio Tumor:Skeletal Muscle” value [9, 13] was 49.3, the “Tissue distribution: Adipose” value [9, 13] was 2.34 ± 0.48 %ID/g and the “Tissue distribution: Blood” value [9, 13] was 1.95 ± 0.23 %ID/g. For the same compound, the “Tissue distribution: Bone” value [9, 13] was 0.55 ± 0.04 %ID/g, the “Tissue distribution: Brain” value [9, 13] was 0.06 ± 0.03 %ID/g and the “Tissue distribution: Heart” value [9, 13] was 1.31 ± 0.22 %ID/g. For the same compound, the “Tissue distribution: Kidneys” value [9, 13] was 65.3 ± 7.5 %ID/g, the “Tissue distribution: Lg Intestine” value [9, 13] was 0.87 ± 0.38 %ID/g and the “Tissue distribution: Liver” value [9, 13] was 11.3 ± 1.3 %ID/g. The “Tissue distribution: Lungs” value [9, 13] was 3.22 ± 0.68 %ID/g, the “Tissue distribution: Sk.Muscle” value [9, 13] was 0.42 ± 0.03 %ID/g and the “Tissue distribution: Sm Intestine” value [9, 13] was 4.4 ± 0.55 %ID/g. The “Tissue distribution: Spleen” value [9, 13] was 4.57 ± 0.77 %ID/g, the “Tissue distribution: Stomach” value [9, 13] was 3.02 ± 0.47 %ID/g and the “Tissue distribution: Testes” value [9, 13] was 0.86 ± 0.18 %ID/g. For the same compound, the “Tissue distribution: Tumor” value [9, 13] was 20.7 ± 5.8 %ID/g, the “Ratio Tumor:Blood” value [9, 14] was 24.3 and the “Ratio Tumor:Skeletal Muscle” value [9, 14] was 80.8. For the same compound, the “Tissue distribution: Adipose” value [9, 14] was 1.68 ± 1.15 %ID/g, the “Tissue distribution: Blood” value [9, 14] was 1.12 ± 0.48 %ID/g and the “Tissue distribution: Bone” value [9, 14] was 0.36 ± 0.11 %ID/g. For the same compound, the “Tissue distribution: Brain” value [9, 14] was 0.06 ± 0.02 %ID/g, the “Tissue distribution: Heart” value [9, 14] was 0.78 ± 0.28 %ID/g and the “Tissue distribution: Kidneys” value [9, 14] was 88.7 ± 23.8 %ID/g. The “Tissue distribution: Lg Intestine” value [9, 14] was 4 ± 2.82 %ID/g, the “Tissue distribution: Liver” value [9, 14] was 9.94 ± 2.53 %ID/g and the “Tissue distribution: Lungs” value [9, 14] was 2.3 ± 1.02 %ID/g. The “Tissue distribution: Sk.Muscle” value [9, 14] was 0.34 ± 0.17 %ID/g, the “Tissue distribution: Sm Intestine” value [9, 14] was 4.67 ± 0.86 %ID/g and the “Tissue distribution: Spleen” value [9, 14] was 3.73 ± 1.46 %ID/g. For the same compound, the “Tissue distribution: Stomach” value [9, 14] was 2.33 ± 1.79 %ID/g, the “Tissue distribution: Testes” value [9, 14] was 1.27 ± 0.31 %ID/g and the “Tissue distribution: Tumor” value [9, 14] was 27.3 ± 3.4 %ID/g. For the same compound, the “Ratio Tumor:Blood” value [9, 15] was 40.6, the “Ratio Tumor:Skeletal Muscle” value [9, 15] was 133 and the “Tissue distribution: Adipose” value [9, 15] was 0.86 ± 0.43 %ID/g. For the same compound, the “Tissue distribution: Blood” value [9, 15] was 0.84 ± 0.23 %ID/g, the “Tissue distribution: Bone” value [9, 15] was 0.25 ± 0.04 %ID/g and the “Tissue distribution: Brain” value [9, 15] was 0.44 ± 0.91 %ID/g. For the same compound, the “Tissue distribution: Heart” value [9, 15] was 0.53 ± 0.09 %ID/g, the “Tissue distribution: Kidneys” value [9, 15] was 77.5 ± 16.6 %ID/g and the “Tissue distribution: Lg Intestine” value [9, 15] was 7.55 ± 7.69 %ID/g. The “Tissue distribution: Liver” value [9, 15] was 7.82 ± 1.01 %ID/g, the “Tissue distribution: Lungs” value [9, 15] was 1.6 ± 0.53 %ID/g and the “Tissue distribution: Sm Intestine” value [9, 15] was 6.64 ± 3.19 %ID/g. The “Tissue distribution: Spleen” value [9, 15] was 2.06 ± 0.63 %ID/g, the “Tissue distribution: Stomach” value [9, 15] was 4.09 ± 1.36 %ID/g and the “Tissue distribution: Testes” value [9, 15] was 0.84 ± 0.18 %ID/g. For the same compound, the “Ratio Tumor:Blood” value [9, 16] was 57.5, the “Ratio Tumor:Skeletal Muscle” value [9, 16] was 121 and the “Tissue distribution: Adipose” value [9, 16] was 2.63 ± 4.66 %ID/g. For the same compound, the “Tissue distribution: Blood” value [9, 16] was 0.49 ± 0.21 %ID/g, the “Tissue distribution: Bone” value [9, 16] was 0.28 ± 0.13 %ID/g and the “Tissue distribution: Brain” value [9, 16] was 0.07 ± 0.02 %ID/g. For the same compound, the “Tissue distribution: Heart” value [9, 16] was 0.38 ± 0.12 %ID/g, the “Tissue distribution: Kidneys” value [9, 16] was 54.8 ± 19.1 %ID/g and the “Tissue distribution: Lg Intestine” value [9, 16] was 12.28 ± 5.35 %ID/g. For the same compound, the “Tissue distribution: Liver” value [9, 16] was 3.79 ± 0.87 %ID/g, the “Tissue distribution: Lungs” value [9, 16] was 1.53 ± 1 %ID/g and the “Tissue distribution: Sk.Muscle” value [9, 16] was 0.23 ± 0.13 %ID/g. For the same compound, the “Tissue distribution: Sm Intestine” value [9, 16] was 3.66 ± 0.9 %ID/g, the “Tissue distribution: Spleen” value [9, 16] was 1.34 ± 0.63 %ID/g and the “Tissue distribution: Stomach” value [9, 16] was 4.43 ± 2.28 %ID/g. For the same compound, the “Tissue distribution: Testes” value [9, 16] was 0.6 ± 0.12 %ID/g, the “Tissue distribution: Tumor” value [9, 16] was 28.1 ± 12.8 %ID/g and the “Ratio Tumor:Blood” value [9, 17] was 174. For the same compound, the “Ratio Tumor:Skeletal Muscle” value [9, 17] was 304, the “Tissue distribution: Adipose” value [9, 17] was 0.52 ± 0.25 %ID/g and the “Tissue distribution: Blood” value [9, 17] was 0.17 ± 0.1 %ID/g. The “Tissue distribution: Bone” value [9, 17] was 0.27 ± 0.19 %ID/g, the “Tissue distribution: Brain” value [9, 17] was 0.03 ± 0.01 %ID/g and the “Tissue distribution: Heart” value [9, 17] was 0.15 ± 0.08 %ID/g. The “Tissue distribution: Kidneys” value [9, 17] was 27 ± 26.2 %ID/g, the “Tissue distribution: Lg Intestine” value [9, 17] was 4.49 ± 3.09 %ID/g and the “Tissue distribution: Liver” value [9, 17] was 1.31 ± 0.63 %ID/g. The “Tissue distribution: Lungs” value [9, 17] was 0.55 ± 0.42 %ID/g, the “Tissue distribution: Sk.Muscle” value [9, 17] was 0.1 ± 0.04 %ID/g and the “Tissue distribution: Sm Intestine” value [9, 17] was 0.76 ± 0.48 %ID/g. The “Tissue distribution: Spleen” value [9, 17] was 0.45 ± 0.29 %ID/g, the “Tissue distribution: Stomach” value [9, 17] was 1.15 ± 1.2 %ID/g and the “Tissue distribution: Testes” value [9, 17] was 0.27 ± 0.23 %ID/g. The “Tissue distribution: Tumor” value [9, 17] was 29.1 ± 15.1 %ID/g, the Blood-brain barrier crossing ([9]; mouse, in vivo) was “do not cross the blood-brain barrier” and the Route of clearance ([9]; mouse, in vivo) was “by both urinary and hepatobiliary routes”.
